Residues, ends and D or L forms follow the SMILES beside them. *: point of attachment. Cbz = O=C(OCc1ccccc1)*
melting point [°C]	Structure (SMILES)
162 to 164	CCN(CC)c1ccc(C2(c3ccc(N(CC)CC)cc3N(CC)CC)OC(=O)c3c(Cl)c(Cl)c(Cl)c(Cl)c32)c(C)c1 (stereo unspecified)
65 to 78	N=C(N)N(CCCC(C=O)NC(=O)C1CCCN1C(=O)COc1ccccc1)C(=O)OCc1ccccc1 (stereo unspecified)
68 to 70	CCc1nc(Cl)c(C(=O)NC)n1Cc1ccc2oc(-c3ccccc3N)c(Br)c2c1
96 to 98	COc1ccc(CS[C@H]2C[C@@H](C(=O)O)N(C(=O)OCc3ccc([N+](=O)[O-])cc3)C2)cc1
147	CCOCCn1c(SC2CCN(C(=O)c3cc(C)cc(C)c3)C(Cc3ccccc3)C2)nc2ccccc21 (stereo unspecified)
183 to 184	CNc1nnc(-c2ccc3ncn(-c4ccc(OC(F)(F)F)cc4)c3c2)o1
272 to 273	O=c1[nH]ncc2cc(Cl)ccc12
244	COc1ccc(S(=O)(=O)N(CC(N)=O)c2c(CCc3ccccc3)cccc2OC)cc1OC
102 to 103	CSc1ccccc1CNC(=O)c1ccc2cnccc2n1
90.5 to 91	Cc1c2c(c(C)n1CCCN(C)C)C(C)(C#N)CC2(C)C (stereo unspecified)
119 to 120	OCCOCC(O)c1ccc2sccc2c1 (stereo unspecified)
168 to 169	COC(=O)c1nn(Cc2ccccc2)c2c1CCc1cc(OCc3ccccc3)ccc1-2
208 to 209	CCCC(=O)c1cc2c(=O)c(C(=O)O)cn(CC)c2cc1C
159 to 161	CCc1ccc(C(=NO)c2ccc(Cl)cc2)c(O)c1
154 to 156	O=C(O)C[C@H](NC(=O)/C=C/C(=O)c1ccccc1)C(=O)O
156 to 157	Nc1ccc(CCC(=O)Nc2ccc(C(=O)c3ccccc3)cc2)cc1N
208 to 212	CC#Cc1ccc(NC(=O)c2ccccc2NCc2ccc(=O)[nH]c2)cc1C(F)(F)F
112	N#CC=Cc1ccc([N+](=O)[O-])cc1
102 to 104	CC(C)(O)C(O)c1ccc(C(=O)CCC(=O)/C(=C/C2CCOCC2)c2ccc(S(=O)(=O)C3CC3)cc2)nc1 (stereo unspecified)
106 to 107	CCC(=O)Oc1ccc(-c2oc3cc(OC)cc(OC(=O)CC)c3c(=O)c2OC)cc1OC
175 to 177	O=c1[nH]c2ccccc2n1CCCN1CCC(c2noc3cc(F)ccc23)CC1
230 to 232	COc1ccc(C=Cc2nc3c(c(=O)n(C)c(=O)n3C)n2C)cc1OC
260 to 262	CC(C)CNC(=O)C(C)NC(=O)C(C)NC(=O)C(C)NC(=O)OCc1ccccc1 (stereo unspecified)

melting point [°C]	Structure (SMILES)
47 to 49	CN(C)CCCOc1cc(F)c(-c2c(Cl)nc(-n3ccnc3)nc2NCC(F)(F)F)c(F)c1
84.5	CC(=C1SCCCS1)c1ccc(Oc2ccc(O)cc2)cc1
100 to 103	CCC(Cc1ccc(C(C)C(=O)O)cc1)C(C)O (stereo unspecified)
165	COC(=O)/C(=C/c1ccc(OCCc2nc(-c3ccccc3)oc2C)c2ccsc12)OC
148 to 150	Cn1ccc(-c2ccc(C(=O)N3Cc4cccn4Cc4ccccc43)c(Cl)c2)n1
131 to 132	COC(=O)c1nn(C2CCCCO2)cc1NC(=O)c1ccccn1 (stereo unspecified)
218 to 219	CC(C)Cn1c(CONC(=O)NC(C)C)nc2c(N)nc3ccccc3c21
195 to 196	CC(C#N)=C1CCC2C3CCC4=CC(=O)CCC4(C)C3CCC12C (stereo unspecified)
190	CCOC(=O)CNC(=O)c1csc(NC(=N)N)n1
56 to 57	COC(=O)CCc1conc1-c1ccc(Cl)cc1
148 to 150	CC(C)c1ccc2oc(C(O)COc3ccc(C(=O)O)cc3)cc2c1 (stereo unspecified)
60.3 to 61.3	CCCCCc1ccc(-c2ccc(N)cc2)nc1
187	NC(=O)C(=O)NCCc1ccc(OCc2ccccc2)c(OCc2ccccc2)c1
182 to 184	O=Cc1cc(O)ccc1-c1cccnc1
58 to 60	CC(=O)N=NCc1ccc(OCCCCCOc2ccc(C(=O)N(c3ccccc3)C(C)C)c(Cl)c2)cc1
178 to 179	COc1cccc([C@H]2O[C@H](CC(=O)Nc3cc4c(c(C(=O)O)c3)CCCC4)C(=O)N(CC(C)(C)CO)c3ccc(Cl)cc32)c1OC
75 to 77	CC(C)(Sc1cc(C(C)(C)C)c(O)c(C(C)(C)C)c1)Sc1cc(C(C)(C)C)c(OCCC(O)C(O)CCO)c(C(C)(C)C)c1 (stereo unspecified)
85 to 88	CNS(=O)(=O)OCCOc1ccc(-n2ccnc2)cc1
157 to 159	C=CCn1c(NCCCOc2ccccc2)nc(N2CCc3ccccc3CC2)c(C#N)c1=O
137 to 138	ONC=Nc1ccc(N2CCSCC2)c(Cl)c1
108	CC(C)c1ccc(C(=O)NC(C)c2ccc(Br)s2)cc1 (stereo unspecified)
290 to 291	O=C1CC(c2ccccc2O)=Nc2ccc(N3CCOCC3)cc21
160 to 161	CC(C)(C)OC(=O)NCCc1ccnc(-c2nc(=O)c3ccccc3s2)c1

melting point [°C]	Structure (SMILES)
245 to 247	CC1C(=O)Nc2c(C(=O)c3ccc(Br)cc3)cccc21 (stereo unspecified)
275 to 279	O=C(c1cccc([N+](=O)[O-])c1)n1c2cc(O)c(O)cc2c2ccc(O)c(O)c21
135 to 136	Cc1ccccc1N1CCN(Cc2n[nH]c3ccccc23)CC1
224 to 228	COCc1c(C=NO)ncc2[nH]c3cccc(Cc4ccc(Cl)cc4)c3c12
145	Cn1c(=O)c2c(ncn2Cc2noc(CCO)n2)n(C)c1=O
183 to 184	O=C(O)C1CSC(=S)N1 (stereo unspecified)
275	CC[C@H](NC(C)=O)c1nc2c(C(F)(F)F)cccc2c(O)c1C(=O)Nc1nccs1
135 to 140	O=C(Cc1ccc(F)cc1)Nc1ccc(-n2nc(C(F)(F)F)cc2C2CC2)cc1
183 to 184	COc1ccc2c(c1)C(=O)CC1C2C(OC(=O)C(C)(C)C)CC2(C)C(OC(=O)C(C)(C)C)CCC12 (stereo unspecified)
63 to 64	CC(=O)C(=Cc1cccc(C#N)c1)C(C)=O
146 to 147	O=C1C=C(CBr)C(=O)C(CCC2=CC(=O)C=C(CBr)C2=O)=C1
181 to 182	Nc1nc2[nH]c(CCCCCc3ccc(C(=O)N[C@@H](CCC(=O)O)C(=O)O)s3)cc2c(=O)[nH]1
166 to 169	Cn1c(=O)c2c(Cl)cc(Cl)cc2n(Cc2ccccc2)c1=O
146 to 147	CCCOCCOc1ccc(COc2ccc3c(c2)C=C(C(=O)Nc2ccc(CN(C)C4CCOCC4)cc2)CCS3(=O)=O)cc1OCC
89 to 90	COC(=O)c1ccc(Cn2ncc3ccccc32)cc1
168 to 170	OC(Cc1ncc[nH]1)(Cn1cncn1)c1ccc(Cl)cc1Cl (stereo unspecified)
70 to 72.5	COc1ccc(C(O)CSCc2ccncc2)cc1 (stereo unspecified)
129 to 131	O=C(Nc1nc(OCc2ccc(F)cc2)ncc1F)Oc1ccccc1
93 to 99	CC(C)(C)[S@@](=O)/N=C/c1cc(F)cc(C#N)c1
49 to 50	CCCOc1ccc(CCCCCCC(=O)O)cc1
274 to 277	COc1ccc(/C=C/c2ccc3cc(C(=O)O)ccc3n2)cc1
118 to 120	N#CN1CCC(c2nsc3ccccc23)CC1
66 to 68	Cc1cc(OCc2ccccc2)c(C)c([N+](=O)[O-])c1

melting point [°C]	Structure (SMILES)
91 to 92	CC(C)NC(=O)C[C@@H]1CCCNc2ccccc21
87 to 89	Cc1noc(NS(=O)(=O)c2ccccc2F)c1Br
172 to 173	CC1=C(C(=O)c2ccc(C(=O)NCCC#N)cc2)C(=O)C2C=CC=CC2C1=O (stereo unspecified)
198 to 199	Cc1nc(NC(=O)c2ccccc2)sc1C(=O)NCc1ccccc1C(F)(F)F
257	CCC(=O)NS(=O)(=O)c1ccc(-c2cc(-c3nc(-c4ccc(C(F)(F)F)cc4)cc(C(F)(F)F)n3)ccn2)s1
295	CNC(=O)c1ccccc1Nc1nc(Nc2ccc3c(c2)C(C)(C)CCC(=O)N3)ncc1Cl
186 to 187	CC(=O)NC[C@H]1CN(c2ccc(C3CCN(C=O)CC3)c(F)c2)C(=O)O1
172 to 174	CCCCCCC(=O)Nc1cccc2c1C(=O)N(C1(C)CCC(=O)NC1=O)C2=O (stereo unspecified)
216 to 220	CSc1ncc2c(Cl)cc(I)n2n1
250	CCOC(=O)C1=C(N)NC(N)=C(C(=O)OCC)C1c1ccccc1N=[N+]=[N-]
196 to 200	CCCCSc1ccc2[nH]c(=O)oc(=O)c2c1
56 to 57	Cc1ccc(Cn2ccc3cc(Br)ccc32)cc1
118 to 119	Cc1oc(-c2ccccc2)nc1COc1ccc2c(-c3ccccc3)c(COc3nn(-c4ccccc4)cc3CO)oc2c1
205 to 206	CCn1cc(CN(C(=O)C2CCc3c(O)cccc32)c2ccc(C(C)C)cc2)cn1 (stereo unspecified)
187 to 188	COc1ccnc(Cl)c1NS(=O)(=O)c1nc2cc(F)nc(OC)n2n1
133 to 135	COC(=O)C(CO)NC(=O)C(Cc1c[nH]c2ccccc12)NC(=O)OCc1ccccc1 (stereo not drawn) (Cbz-Trp-Ser-OMe; configuration not given here)
273 to 274	CC(C)(C)CC(=O)Nc1ccc2ncnc(N)c2c1
127 to 129	CN(Cc1cc2c(=O)c(C(=O)NCc3ccc(Cl)cc3)cn(C)c2o1)CC(O)c1ncccn1 (single isomer, unassigned; (+))
87 to 92	CCN(CC)C(=O)C1(OC(=S)N(CC)CC)C=CC=NC1F (stereo unspecified)
136	CC(c1cc(F)cc(Br)c1O)c1cc(Cl)cc(C(C)c2cc(F)cc(Br)c2O)c1O (stereo unspecified)
290 to 292	CC(C)=CCn1c(=O)sc2c(=O)[nH]c(N)nc21
204 to 205	CCc1cnc(N2CCN(C(=O)c3ccccc3NC3=c4ccccc4=NCN3c3ccccc3)CC2)nc1

Structure (SMILES)	melting point [°C]
CC(=O)OC1N=C(c2ccccc2F)c2cc(Cl)ccc2-n2c1cnc2C (stereo unspecified)	201 to 202
NC(=O)c1nc(CN2CCOCC2)n(-c2ccc(Cl)cc2C(=O)c2ccccc2Cl)n1	165 to 167
C1=C(c2nc3ccccc3o2)CCN(Cc2ccccc2)C1	129 to 130
COC(=O)C1Cc2sc3c(c2C1)C(c1ccccc1Cl)=NCC(N(C)C1(C)OCCO1)=N3 (stereo unspecified)	166 to 168
CCCCCCC(C)(C)c1cc(O)c2c(c1)oc(=O)c1ccc(O)cc12	103 to 108

Source: a melting point compilation (Tetko et al.; mined from patent text by program, amines drawn as free bases though some values may be those of a salt)
